From patent US20260184700A1, “PDK1 REGULATORY COMPOUND AND COMPOSITION CONTAINING THE SAME” (PROVIBIO CO., LTD., priority 2024, published 2026)

Columns and labels:
[1] = system: Human Colorectal Carcinoma cell line, HCT-116; assay: Relative cell viability, CCK-8, HCT-116; format: cell-based; settings: 48 hours
Experimental: (§1) Human-derived breast cancer cell line MCF-7, human-derived lung cancer cell line A549, human-derived colorectal cancer cell line HCT-116, human pancreatic cancer cell line AsPC-1, glioblastoma cell line A172, and melanoma cell line Malme-3M were obtained from the Korean Cell Bank. gastric cancer cell line SNU-719, and bladder cancer cell line T24 were cultured in RPMI-1640 medium containing 10% FBS.
(§2) Following stabilization, the cells were harvested using Trypsin-EDTA treatment, centrifuged at 1,200 rpm for 3 minutes, the supernatant was removed, and the cells were resuspended in the same medium. They were then seeded into a 96-well plate (Costar 96-well cell culture plate, Corning) at 100 μL per well, and the conditions were adjusted as indicated in Table 5.
The cells were cultured in a 5% CO2 incubator at 37° C. for 24 hours, and after stabilization of the cells, each plate was washed with 200 μL of PBS per well and treated with 50 μL of culture medium per well.
(§3) After that, 10 μL of CCK-8 was added to each well, and the plate was incubated again at 37° C. in a 5% CO2 incubator for 2 hours.
(§4) In other words, when the survival rate of untreated cells (DMSO) is set at 100%, the relative cell survival rate in each group treated with the drug at different concentrations is indicated.

[2] = system: Human Bladder cancer cell, T24; assay: Relative cell viability, CCK-8, T24; format: cell-based; settings: 48 hours
Experimental: as §1, §2
The cells were cultured in a 5% CO2 incubator at 37° C. for 24 hours, and after stabilization of the cells, each plate was washed with 200 μL of PBS per well and treated with 50 μL of culture medium per well. […]
as §3, §4

[3] = system: MRL/lpr mice; assay: Lupus animal model (MRL/lpr mice); format: in vivo, mouse; settings: 41-week-old female MRL/lpr mice; GO15F (30 mg/kg), GO48 (1 mg/kg), GO88 (0.5 mg/kg) intraperitoneally once daily
Excerpt: The MRL/MpJ-Faslpr/J (Hereinafter Referred to as “MRL/lpr”) used in this experiment is one of the representative animal models for systemic lupus erythematosus (SLE), known to produce various autoantibodies, including antinuclear antibodies, due to the lpr (lymphoproliferation) gene.
In this invention, the period up to 9 weeks of age was considered the pre-disease stage, and the period after 23 weeks of age was considered the post-disease stage, and efficacy verification experiments using this model were conducted.
MRL/lpr mice were imported from The Jackson Laboratory and acclimatized for one week in an SPF (Specific Pathogen Free) facility maintained at a temperature of 21-24° C., humidity of 40-60%, and a 12-hour light-dark cycle (lights on at 7:00 AM, lights off at 7:00 PM). […]
The serum separated at the time of necropsy of the lupus animal model was analyzed using the ‘IgG (Total) Mouse Uncoated ELISA Kit (Invitrogen, Cat. #88-50400)’ to measure the concentration of total IgG.
Capture antibody (anti-mouse IgG) diluted 1/250 in coating buffer was added to each well of a 96-well plate (Nunc™ MaxiSorp™ ELISA Plates, Uncoated, BioLegend, Cat. #423501) at 100 μl per well, and the plate was incubated at 4° C. for 16 hours.
To investigate the effect of GO15F administration on changes in the ratio of immune cells in the spleen of a lupus animal model, the spleens of mice administered each compound were excised, cells were extracted, and the cells were suspended in MACS buffer (autoMACS Washing Solution, Miltenyi Biotec., Cat. #130-092-987).
For flow cytometry analysis, FACS tubes (5 mL round tubes, Falcon, Cat. #352052) were used. To prevent non-specific binding of antibodies, 1 μg/mL of anti-mouse CD16/CD32 (InVivoPlus anti-mouse CD16/CD32, BioXCell, Cat. #BP0307) for 30 minutes to prevent non-specific binding of the antibody, then centrifuge at 1,500 rpm for 5 minutes and resuspend in 100 μL of MACS buffer.
For B cells, each FACS tube was stained with 1 μg/mL of FITC-conjugated anti-B220 antibody (eBioscience™, Cat. #11-0452-81) at 4° C. for 30 minutes, then washed with 2 mL of MACS buffer.
For T cells, each FACS tube was stained with 1 μg/mL PerCP-Cy5.5-conjugated anti-CD3 (Biolegend, Cat. #100218) at 4° C. for 30 minutes.
For macrophages, each FACS tube was stained with 1 μg/mL of PE-conjugated anti-CD11b antibody (Biolegend, Cat. #101207) and PerCP-Cy5.5-conjugated anti-F4/80 (Biolegend, Cat. #123128) and incubated at 4° C. for 30 minutes. The tubes were then washed with 2 mL of MACS buffer.
To investigate the effects of compound GO15F according to the present invention on systemic immune responses in a lupus animal model, gene expression analysis of cytokines in kidney tissue was performed as described in (1).
Each kidney tissue was used to isolate total RNA using TRIzol™ (Invitrozen, Cat. #15596018). RNA from each mouse was quantified at 1 μg using a micro-quantitative spectrophotometer (ThermoFisher Scientific, ND2000) and cDNA was synthesized.
The synthesized cDNA from each mouse was quantified to a concentration of 50 ng using a micro-quantitative spectrophotometer, and qPCR was performed for the cytokines ‘IL-2, IL-6, IL-10, IL-17, TNF-α, IFN-γ’ using a SYBR green probe (CFX96, BIO-RAD).
To investigate the effects of drug administration on renal tissue in MRL/lpr mice, the tissue was fixed in 10% neutral buffered formalin at room temperature, followed by stepwise ethanol penetration for dehydration. The tissue was then embedded in xylene and paraffin.
The blocked tissues were sectioned into 4 μm thick slices using a microtome, followed by deparaffinization, hydration, and staining.
Hematoxylin & Eosin staining, PAS staining, and Masson trichrome staining were performed for pathological evaluation of the tissues. […]

Row | SMILES | Relative cell viability (%) ([1]; HCT-116, 1 μM) | Relative cell viability (%) ([1]; HCT-116, 10 μM) | Relative cell viability (%) ([1]; HCT-116, 30 μM) | Relative cell viability (%) ([1]; HCT-116, 50 μM) | Relative cell viability (%) ([2]; T24, 1 μM) | Relative cell viability (%) ([2]; T24, 10 μM) | Relative cell viability (%) ([2]; T24, 30 μM) | Relative cell viability (%) ([2]; T24, 50 μM) | hair growth on the facial region [3]
1 | CC1(C)CN(CCCCCCCCCCCCC(=O)Nc2nc(N)c3[nH]cnc3n2)CCO1 [Compound 11, 12-[4-(2,2-dimethylmorpholin-4-yl)]dodecyl-N-(6-aminopurine-2-yl)carboxamide] | 21.36% | 24.91% | 24.78% | 25.26% | 28.15% | 31.17% | 30.42% | 29.34% | –
2 | Nc1ncccc1C(=O)NCCCCCCCCCCCCN1CCNCC1 [Compound 14, 2-Amino-N-(12-(piperazin-1-yl)dodecyl)nicotinamide] | – | – | – | – | – | – | – | – | hair growth was confirmed
